Test results: paper PMC6547681 (Nature Communications, 2019)
Values joined by “and” are separate entries in the source; they are usually repeats but may differ in a detail not shown here. Identical values can stand only once. Like-named read-outs stand apart in the source and are kept apart here. Values belong to the compound of their own block, whether it stands above or below them. Where no end group is shown, it is not given here.

How the values were obtained:
[1] = tested on: KMS-12-PE cells, Parental; assay: CellTiter-Glo cell viability, KMS-12-PE parental cells; assay type: cell-based; conditions: 3 independent experiments in duplicate
BCL-2 G101V [2] = conditions: G101V relative to WT; cited from earlier work
BCL-2 F104L [3] = conditions: listed as Ven, cited from earlier work
BCL-2 WT [4] = conditions: competition vs BIMBH3 SPR surface, mean ± SD, n=3, previously reported, listed as Ven; cited from earlier work
BCL-2 WT [5] = conditions: cited from earlier work
BCL-2 F104C = BCL-2 F104C (Homo sapiens, UniProt P10415, F104C); assay: SPR direct binding to immobilised BH3 peptides (kinetic fit), BCL-2 F104C; conditions: for Kd: BCL-2 F104C
Description: (§1) SPR experiments were performed as previously described. […] The lowest concentrations used in direct binding experiments were 1 nM for BIAcore 4000 and 0.1 nM for BIAcore S200 instruments, concentrations below these were below the sensitivity thresholds for the instruments. […] Direct binding experiments were fitted to a 1:1 binding site kinetic model, fitting on and off rates, in BIAevaluation software. For competition experiments steady-state responses were determined in BIAevaluation software according to the software defaults in affinity evaluation mode averaging responses for 5 sec. […] All affinity measurements were performed in at least two independent experiments using independent protein preparations.
(§2) Raw data (coloured curves) were fitted (black curves) to a 1 site specific kinetic model to determine on and off rates and the equilibrium binding constant KD.
(§3) The BCL-2 mutant proteins were diluted in a 2-fold dilution series, concentration ranges for curves are indicated. All experiments shown were performed on a BIAcore 4000, with the exception of (a) which was performed on a BIAcore S200.
(§4) (1 picture or pasted object on this page, not shown here)

BCL-2 E152A = BCL-2 E152A (Homo sapiens, UniProt P10415, E152A); assay: SPR direct binding to immobilised BH3 peptides (kinetic fit), BCL-2 E152A
Description: as §1, §2, §3, §4

BCL-2 F104L [6] = conditions: cited from earlier work
[7] = target: BCL-2 G101V/E152A double mutant (Homo sapiens, UniProt P10415, E152A/G101V); assay: SPR direct binding to immobilised BH3 peptides (kinetic fit), BCL-2 G101V/E152A double mutant
Description: as §1, §2, §3, §4

BCL-2 G101V [8] = conditions: cited from earlier work
[9] = read-out: BAXBH3 KD (mean), direct binding, kinetic fit, mean ± SD, n ≥ 2, previously reported
[10] = read-out: BAXBH3 KD, single independent experiments, independent experiments 1-3, previously reported
[11] = BCL-2 F104C binding BAXBH3, 1:1 kinetic fit, each independent experiment
[12] = read-out: BAXBH3 KD (mean), direct binding, kinetic fit, mean ± SD, n ≥ 2

Chain of BCL-2 F104C (P10415 with tags, fused parts or gaps F104C): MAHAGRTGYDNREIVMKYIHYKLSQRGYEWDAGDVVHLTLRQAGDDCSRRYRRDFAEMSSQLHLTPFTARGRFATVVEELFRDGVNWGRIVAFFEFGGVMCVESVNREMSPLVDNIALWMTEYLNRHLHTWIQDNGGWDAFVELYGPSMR
Chain of BCL-2 G101V/E152A double mutant (P10415 with tags, fused parts or gaps G101V/E152A): as the sequence (P10415 with tags, fused parts or gaps F104C) above, with G44V, C47F, E95A counted along it
Chain of BCL-2 E152A (P10415 with tags, fused parts or gaps E152A): as the sequence (P10415 with tags, fused parts or gaps F104C) above, with C47F, E95A counted along it

Compound: O=C(c1cc(-c2cc3c(cc2C(=O)N2Cc4ccccc4C[C@H]2CN2CCOCC2)OCO3)n2c1CCCC2)N(c1ccccc1)c1ccc(O)cc1 [Servier BCL2i]
Raw data values in Figure 4a (cell viability) ([1]; Servier BCL2i concentration 0.002441 μM, 0.002441 µM): 91.4402 and 90.8859 and 86.2314 and 89.8168 and 85.5276 and 83.3911
Raw data values in Figure 4a (cell viability) ([1]; Servier BCL2i concentration 0.019531 μM, 0.019531 µM): 79.2854 and 83.3303 and 62.6836 and 66.1433 and 63.9237 and 63.1413
Raw data values in Figure 4a (cell viability) ([1]; Servier BCL2i concentration 0.15625 μM, 0.15625 µM): 41.8118 and 47.4883 and 34.039 and 38.7009 and 36.6962 and 37.7057
Raw data values in Figure 4a (cell viability) ([1]; Servier BCL2i concentration 10 μM, 10 µM): 0.8691 and 0.8133 and 1.2479 and 1.255 and 1.1789 and 1.099

Compound: CC1(C)CCC(CN2CCN(c3ccc(C(=O)NS(=O)(=O)c4ccc(NCC5CCOCC5)c([N+](=O)[O-])c4)c(Oc4cnc5[nH]ccc5c4)c3)CC2)=C(c2ccc(Cl)cc2)C1 [venetoclax]
reduction of affinity of the drug for BCL-2 by the G101V mutation (BCL-2 G101V [2]): ~180 fold
Ki (BCL-2 F104L [3]; competition vs BIMBH3 SPR surface, mean ± SD, n=3, previously reported, read-out: Ven KI (mean)): 0.46 nM and 0.456 nM
Ki (BCL-2 F104L [3]; independent experiments 1-3, previously reported, read-out: Ven KI, single independent experiments): 0.358 nM and 0.584 nM and 0.425 nM
Ki (BCL-2 WT [4]): 0.018 nM and 0.0181 nM

Kd (BCL-2 F104C; [12]): 4 nM and 4.02 nM
Kd (BCL-2 F104C; read-out: BAXBH3 KD, single independent experiments, independent experiments 1-3): 4.25 nM and 3.96 nM and 3.84 nM
Kd (BCL-2 E152A; [12]): 3.6 nM and 3.55 nM
Kd (BCL-2 E152A; read-out: BAXBH3 KD, single independent experiments, independent experiments 1-2): 4.18 nM and 2.93 nM
Kd ([7]; read-out: BAXBH3 KD (mean), BCL-2 G101V/E152A, direct binding, kinetic fit, mean ± SD, n ≥ 2): 5.5 nM and 5.51 nM
Kd ([7]; read-out: BAXBH3 KD, single independent experiments, BCL-2 G101V, E152A (DM), independent experiments 1-2): 5.7 nM and 5.31 nM
Compound: BAXBH3: biotinylated BAXBH3 peptide ADASTKKLSECLKRIGDELDSNMELQRMIAA immobilised on SPR sensor chip (also: biotinylated, place not given here)
Kd (BCL-2 WT [5]; [9]): 1.4 nM and 1.37 nM
Kd (BCL-2 WT [5]; [10]): 1.6 nM and 1.14 nM and 1.36 nM
ka (BCL-2 F104C; [11]): 1.67e+06 M⁻¹ s⁻¹ and 2e+06 M⁻¹ s⁻¹ and 2.06e+06 M⁻¹ s⁻¹
kd (BCL-2 F104C; [11]): 0.00709 s⁻¹ and 0.00791 s⁻¹ and 0.0079 s⁻¹
Kd (BCL-2 F104L [6]; [9]): 6.1 nM and 6.08 nM
Kd (BCL-2 F104L [6]; [10]): 7.24 nM and 5.46 nM and 5.55 nM
Kd (BCL-2 G101V [8]; [9]): 12 nM and 11.7 nM
Kd (BCL-2 G101V [8]; [10]): 9.91 nM and 12.9 nM and 12.2 nM
